Source: patent US12569495B2, “Inhibitors of porcine reproductive and respiratory syndrome virus” (UNIVERSITY OF CONNECTICUT, priority 2020, dated 2026)
Entries after “also recorded” stand apart in the source; their conditions may differ.

Experiments:
[1] = biological target: T1, protein-protein interactions (PPI) between CD163-SRCR5 domain and PRRSV GP2a protein (Sus scrofa, UniProt Q2VL90); assay: BiFC assay between SRCR5-VN and GP2a-VC proteins; assay type: cell-based, porcine CD163; PRRSV; conditions: HEK293T cells; compounds at 5 μM; 24 h; DMSO as Ctrl
T1 construct: The amplified cDNA fragments of SRCR2 or SRCR5 were subcloned into the pBiFC-VN155(I152L) vector; Myc tag (from vector backbone pMyc-CMV); expressed in transfected cells; host or cells: HEK293T
T1 sequence (Q2VL90 477-577): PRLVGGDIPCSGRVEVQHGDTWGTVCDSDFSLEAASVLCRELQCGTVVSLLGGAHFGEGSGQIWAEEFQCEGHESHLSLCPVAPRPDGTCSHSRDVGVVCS
Excerpt: The N-terminus and C-terminus of the truncated Venus-I152L were inserted into vector backbone pMyc-CMV and pCMV-HA, constituting commercial plasmids pBiFC-VN155(I152L) and pBiFC-VC155, respectively (Addgene, Watertown, MA, USA). See Kodama and Hu, Biotechniques 49:793-805 (2010). cDNA fragments for the scavenger receptor cysteine-rich domain 2 (SRCR2) and SRCR5 of porcine CD163 receptor, and for PRRSV glycoproteins GP2a and GP4 were amplified by RT-PCR. The amplified cDNA fragments of SRCR2 or SRCR5 were subcloned into the pBiFC-VN155(I152L) vector digested with EcoRI/BglII. For constructions of GP2a and GP4 fusion proteins, cDNA fragments encoding GP2a or GP4 were subcloned into the pBiFC-VC155 vector digested with EcoRI/BglII. All plasmid clones were verified by DNA Sanger sequencing.
HEK293T cells cultured in 12-well plates were transfected with appropriate plasmids for each BiFC assay using FuGENE® 6 (Promega, Madison, WI, USA). After 5 h, various concentrations of chemical compounds were added to the culture media. DMSO was used as the vehicle control. Fluorescence images of treated cells at 24 h after plasmid transfection were captured using an inverted Nikon fluorescence microscope. Fluorescence intensity of treated cells was measured by ImageJ.
Using the previously described BiFC vector based on the fragmented venus protein (VN-155[I152L], hereafter named VN) and (VC-155, hereafter named VC), fusion protein constructs were established between the porcine CD163 protein SRCR5 or SRCR2 domain and VN, and between the PRRSV minor glycoproteins (GP2a or GP4) and VC (FIG. 1A, 2). See Kodama et al., Biotechniques 49(5): 793-805 (2010). These plasmids were co-expressed in HEK293T cells to evaluate the PPIs between the SRCR5 domain and GP2a or GP4.
The BiFC assays was tested to determine whether it could identify small molecules with potential to block the protein-protein interactions between CD163 and PRRSV. A customized virtual screen of a library of commercially available small molecules was performed with the AtomNet® model at a region centered around R561 (FIG. 3) based on the available 3-D protein structure of porcine CD163-SRCR5 domain, and 74 compounds predicted to target this potential binding site were procured. Ma et al., J. Virol. 91(3): e01897-16 (2017). These compounds were tested using the BiFC assay, to evaluate their ability to inhibit the PPI between GP2a and SRCR5. Plasmids were co-transfected in HEK293T cells, 4 h later, compounds were individually administered to cells at 5 μM. Twenty-four hours later, images were taken under a fluorescence microscope and the fluorescence quantified. […] Until these studies, there has been no known biological activity reported for compound B7.

[2] = MTT cytotoxicity assay in PAMs; assay type: cell-based, pig; conditions: pig, porcine alveolar macrophages (PAMs), 24 h incubation, read-out: LC50, MTT assay
Method: (§1) The cytotoxicity of selected screening compounds was determined in porcine alveolar macrophages (PAMs) the principal host cell of productive PRRSV infection. Briefly, various concentrations of the compounds were added to PAMs seeded in 24-well plates and incubated for 24 h. Then 50 μl of the MTT assay labeling reagent (In Vitro Toxicology Assay Kit, MTT based, Sigma-Aldrich) were added to each well and incubated for 4 h before 500 μl of the solubilization solution was added into each well to fully dissolve the formazan crystal by overnight incubation. The absorbance of samples was measured using a spectrophotometry microplate reader at 600 nm. PAMs treated with DMSO served as the controls.

[3] = test system: porcine alveolar macrophages (PAMs); assay: MTT cytotoxicity assay in PAMs; assay type: cell-based, pig
Method: as §1

[4] = test system: PRRSV strain VR-2332; assay: qRT-PCR for PRRSV RNA in infected PAMs; assay type: cell-based
Method: Total RNA was extracted from PAMs infected with PRRSV using RNeasy Mini Kit (Qiagen, Germantown, MD) according to the manufacturer's instruction. RNA concentrations were measured using a Nanodrop spectrophotometer (Thermo Fisher Scientific). GAPDH was used as a housekeeping gene for gene expression normalization. Data were processed with the software associated with ABI 7500.
For PRRSV infection of PAM cells, PAMs were seeded one day prior to infection. […] Cells were inoculated with VR-2332, SDSU73, NADC30 or Lelystad PRRSV at MOI=0.1 for 1 h. The 24 h cell medium supernatant was stored at −80° C. until use.

[5] = test system: type I strain (Lelystad); assay: PRRSV titration assay, type I strain; assay type: cell-based; conditions: 15 μM; PAMs; 24 h
Method: For PRRSV infection of PAM cells, PAMs were seeded one day prior to infection. Control cells were treated with DMSO and test cells were treated with the selected screening compounds (5-20 μM) for 4 h before inoculation, during the 1 h PRRSV inoculation, and for 24 h after inoculation. Cells were inoculated with VR-2332, SDSU73, NADC30 or Lelystad PRRSV at MOI=0.1 for 1 h. The 24 h cell medium supernatant was stored at −80° C. until use.
For PRRSV titration assay, MARC145 cells were seeded in 48-well plates and grew to ˜80% density before inoculation. Viral supernatants were prepared by 10-fold serial dilution, and 100 μl of the dilutions was added per well in six replicates. Inocula were removed from cells after 2 h and replaced with 0.5 mL of DMEM supplemented with 2% FBS, 2 mM glutamine, 0.1 mM MEM non-essential amino acids, 50 U/mL penicillin, and 50 μg/mL streptomycin (Invitrogen). Cells were cultured at 37° C. for 6 days and any cytopathic effects were observed and recorded. The PRRSV titer was calculated using the Reed and Muench method and expressed as median tissue culture infectious dose (TCID50/mL). Reed and Muench, Am. J. Epidemiol. 27(3): 493-497 (1938).
The inhibitory effect of B7 was further tested on multiple strains of PRRSV. […]

Cc1cc(F)ccc1S(=O)(=O)Nc1nc2ccccc2nc1Nc1cccc(S(=O)(=O)N2CCOCC2)c1 [Compound B7, 4-fluoro-2-methyl-N-[3-(3-morpholin-4-ylsulfonylanilino)quinoxalin-2-yl]benzenesulfonamide]
inhibition of PPI between GP2a and SRCR5 (venus fluorescence in BiFC assay) [1]: significantly inhibited the reconstitution of venus fluorescence; also recorded: positive inhibitory effect; also recorded: significantly inhibits the interaction | CC50 at 24 h [2]: 81.7 µM | concentrations well-tolerated by PAMs (MTT assay) ([3]; 24 h): below 25 μM | IC50 ([3]; Sus scrofa, Macrophage, 24 h incubation, read-out: IC50, cell viability in MTT assay): 81.7 µM | inhibition of PRRSV infection of PAMs (qRT-PCR, viral RNA) ([4]; 0, 5, 10, 15, 20 μM, 4 h pre-treatment, 1 h inoculation MOI=0.1, 24 h after inoculation): dose-dependent inhibition; also recorded: inhibits PRRSV infection of porcine alveolar macrophages (PAMs) | inhibitory effect on PRRSV infection (qRT-PCR), pre-treatment alone ([4]; 15 μM, 4 h pre-treatment only, no post-treatment, VR-2332): minimal impact | log reduction of viral titer for the type I strain (Lelystad) [5]: 2.2 log
